# Marks after values point to notes of the source that are not given here.
# Tests used:
# [1] = DPPH free radical scavenging (antioxidant activity); details: 100 μg/mL compound in 3 mL 0.004% DPPH, 520 nm after 30 min; mean of three replicates ±SD
# Method: The antioxidant activity was measured based on the scavenging activity of the stable DPPH free radical. 100 μg/mL of the twenty-five sulindac derivative compounds were added to 3 mL 0.004% DPPH solution. Methanol was added to 3 mL 0.004% DPPH solution for the control sample. Absorbance was determined at 520 nm after 30 min. Butylated hydroxytoluene (BHT) was used as a reference drug. The percent inhibition was calculated by the equation:
# [formula] where At is the absorbance of the compound and A0 is the absorbance of the control.
# [2] = system: hot plate nociception; experiment: Analgesic activity by hot plate method; assay type: in vivo, mice; details: Sulindac 100 mg/kg oral; for % Inhibition 30 min / Reaction Time 30 min / % Inhibition 60 min / Reaction Time 60 min / % Inhibition 120 min / Reaction Time 120 min: Compound 8 150 mg/kg; for Reaction Time 30 min / Reaction Time 60 min / Reaction Time 120 min / Reaction Time, Pre-drug: mean ±SEM; for Reaction Time, Pre-drug: pre-drug baseline, groups Compound 8 150 mg/kg
# Method: (§1) All animal experiments used healthy male albino rats (200 g-220 g) and mice. The animals were kept in standard plastic animal cages in groups of six animals each with a 12 hour light and dark cycle. The animals were acclimatized to laboratory conditions for a week prior to the experiments.
# In an analgesic activity by hot plate method study, animals were dropped gently on a hot plate maintained at […]. Reaction time was recorded as the interval extending from the instant the animal reached the hot plate until the moment the animal licked its forefeet or jumped off. […]
# [3] = system: acetic acid induced writhing; experiment: Analgesic activity by acetic acid induced writhing; assay type: in vivo, mice; details: Compound 8 150 mg/kg, Sulindac 100 mg/kg; for % Inhibition (writhing): versus acetic acid group; for Movements (writhing): counted for 20 minutes after i.p. acetic acid, mean ±SEM
# Method: as §1
# In an analgesic activity by writhing study, writhing was induced in mice by intraperitoneal administration of 0.1 mL of 1% acetic acid. The number of writhing movements was counted for 20 minutes. The writhing test was performed after the administration of the vehicle or sulindac derivative compound.
# [4] = system: Total Protein (TP); experiment: Total protein in gastric juice; assay type: in vivo, rats; details: Sulindac 100, Compound 8 150, mean ±SEM
# Method: Total Protein (TP), or dissolved proteins in gastric juice, was estimated through alcohol precipitation. 90% alcohol was added to gastric juice at a 9:1 ratio, and then 0.1 ml of the alcoholic precipitate of gastric juice was dissolved in 1 ml of 0.1 N NaOH, and 0.05 ml of this suspension was placed in a test tube. 4 ml of an alkaline mixture was then added to the test tube and incubated at room temperature for 10 minutes. 0.4 ml of a phenol reagent was then added, and after a further 10 minutes, once color had developed, a reading was taken against a blank containing distilled water at 610 nm on a spectrophotometer. TP content was then calculated from a standard curve prepared with bovine albumin and expressed as g/L of gastric juice. Results were calculated by ANOVA followed by Dunnett's multiple comparison test and are summarized in Table 9, represent mean±SEM; **=p<0.01; ***=p<0.001 (n=6).
# [5] = LD50 by the Karber method; assay type: in vivo; details: 24 hours observation
# Method: In a study of the LD50 of sulindac derivative Compound 8, the LD50 (lethal dose 50%) was calculated for compound 8 by the Karber method. For determination of LD50, an observation was made for 24 hours, and symptoms of toxicity and rate of mortality were noted. Expired animals were counted at the end of the study period for the calculation of LD50 according to: LD50=LD100−Σ(a×b)/n, where n is the total number of animals in a group, a is the difference between two successive doses of administered extract/substance, b is the average number of dead animals in two successive doses, and LD100 is the lethal dose causing 100% death of all test animals.
Structure (SMILES),Scavenging Effect [1],% Inhibition 30 min [2],Reaction Time 30 min [2],% Inhibition 60 min [2],Reaction Time 60 min [2],% Inhibition 120 min [2],Reaction Time 120 min [2],"Reaction Time, Pre-drug [2]",% Inhibition (writhing) [3],Movements (writhing) [3],"TP ([4]; drug alone, no ethanol)",TP ([4]; with 80% Ethanol 1 mL),# Dead ([5]; dose 100 mg/kg),# Dead ([5]; dose 200 mg/kg),# Dead ([5]; dose 400 mg/kg),# Dead ([5]; dose 800 mg/kg),# Dead ([5]; dose 1600 mg/kg),# Dead ([5]; dose 2000 mg/kg),"LD50 at 24 h ([5]; in vivo, Karber method, LD50=LD100−Σ(a×b)/n)"
CC1=C(CC(=O)N/N=C\c2ccc(N(C)C)cc2)c2cc(F)ccc2/C1=C\c1ccc([S+](C)[O-])cc1 (stereo not drawn) [Compound 8],85.10 ± 6.80%,15%,7.66 ± 0.42 s,47.50%,9.83 ± 0.30 s,67.50%,11.16 ± 0.30 s,6.66 ± 0.33 s,56.86%,14.66 ± 0.95,114.57 ± 1.89*** g/L,100.99 ± 2.42*** g/L,0,0,1,3,5,9,1310 mg/kg
CC1=C(CC(=O)O)c2cc(F)ccc2/C1=C\c1ccc([S+](C)[O-])cc1 (stereo not drawn) [Sulindac],–,41.30%,10.83 ± 0.47 s,54.34%,11.83 ± 0.47 s,86.95%,14.33 ± 0.42 s,7.66 ± 0.33 s,74.01%,8.83 ± 0.70,105.78 ± 1.43*** g/L,93.81 ± 3.05*** g/L,–,–,–,–,–,–,–

# — patent US10329249B1, “Sulindac derivatives” (KING SAUD UNIVERSITY, priority 2018, dated 2019)
